Holding throughout (assay type): cell-based
The target in test [1] is T1, human β2-adrenergic receptor (Homo sapiens, UniProt P07550).
T1 construct: expressed in transfected cells; host or cells: CHO cells
Briefly: cAMP accumulation (SPA) in CHO cells transfected with human β2 adrenergic receptor. Particulars: for beta-2 (IA) maximal response relative to isoproterenol: IA = % activity compound / % activity isoproterenol at 10^−5 M, CHO human β2 cells; for EC50: CHO cells transfected with human β2-AR, cAMP, 15 min incubation, 10^−8 to 10^−4 M, read-out: beta-2 EC50. The procedure:
(§1) The ability of compounds of this invention to treat or inhibit disorders related to insulin resistance or hyperglycemia was established with representative compounds of this invention in the following standard pharmacological test procedures, which measured the binding selectivity to the β1, β2, and β3 adrenergic receptors. Binding to the receptors was measured in Chinese Hamster ovary (CHO) cells that were transfected with adrenergic receptors. The following briefly summarizes the procedures used and results obtained.
(§2) Transfection of CHO cells with β1 and β2 adrenergic receptors: CHO cells were transfected with human β1- or β2-adrenergic receptors as described in Tate, K. M., Eur. J. Biochem., 196:357-361 (1991).
(§3) Binding Procedure: Clones expressing receptor levels of 70 to 110 fmoles/mg protein were used in the test procedures. CHO cells were grown in 24-well tissue culture plates in Dulbecco's Modified Eagle Media with 10% fetal bovine serum, MEM non-essential amino acids, Penicillin-Streptompycin and Geneticin. On the day of test procedure, growth medium was replaced with preincubation media (Dulbecco's Modified Eagle Media and incubated for 30 minutes at 37° C. Preincubation medium was replaced with 0.2 ml treatment medium containing DMEM media containing 250 μM IBMX (isobutyl-1-methylxantine) plus 1 mM ascorbic acid with test compound dissolved in DMSO. Test compounds were tested over a concentration range of 10^−9 M to 10^−5 M for β3 cells and 10^−8 to 10^−4 M for β1 and β2 transfected cells. Isoproterenol (10^−5 M) was used as an internal standard for comparison of activity. Cells were incubated at 37° C. on a rocker for 30 min with the β3 cells and 15 min for β1 and β2 cells. Incubation was stopped with the addition of 0.2N HCl and neutralized with 2.5N NaOH. The plates, containing the cells and neutralized media, were stored at −20 degrees celsius until ready to test for cAMP using the SPA test kit (Amersham).
(§4) Data Analysis and Results: Data collected from the SPA test procedure were analyzed as per cent of the maximal isoproterenol response at 10^−5 M. Activity curves were plotted using the SAS statistical and graphics software. EC50 values were generated for each compound and the maximal response (IA) developed for each compound is compared to the maximal response of isoproternol at 10^−5 M from the following formula:
(§5) IA=% activity compound/% activity isoproterenol

Test [2] concerns the target T2, human β3 adrenergic receptor (Homo sapiens, UniProt P13945).
T2 construct: Full length β3 AR clones (402 amino acids) containing the last 6 amino acids of hβ3— AR are prepared; expressed in transfected cells; host or cells: CHO cells
Description: cAMP accumulation (SPA) in CHO cells transfected with human β3 adrenergic receptor. Particulars: for EC50: CHO cells expressing human β3-AR, cAMP, 30 min incubation, 10^−9 M to 10^−5 M, read-out: beta-3 EC50; for beta-3 (IA) maximal response relative to isoproterenol: IA = % activity compound / % activity isoproterenol at 10^−5 M, CHO human β3 cells. The procedure: as §1
Cloning of Human β3-AR Genomic DNA: cDNA was constructed by ligating four polymerase chain reaction (PCR) products using the following primers: an ATG-Narl fragment, sense primer 5′-[…]3′ and anti-sense primer 5′[…]3′; a Narl-Accl fragment, 5′[…]3′ as sense and 5′[…]3′ as anti-sense primer; an Accli-Styl fragment, sense primer 5′[…]3′ and anti-sense primer 5′[…]3′ and a Styl-TAG fragment, with sense primer 5′[…]3′ and anti-sense primer 5′[…]3′. The corresponding primer sequences are described in Mantzoros, C. S., et.al., Diabetes 45: 909-914 (1996). The four fragments are ligated into a pUC 18 plasmid (Gibco-BRL) and sequenced. Full length β3 AR clones (402 amino acids) containing the last 6 amino acids of hβ3— AR are prepared with the β3-βARpcDNA3from ATTC.
as §3, §4, §5

The target in test [3] is T3, human β1-adrenergic receptor (Homo sapiens, UniProt P08588).
T3 construct: expressed in transfected cells; host or cells: CHO cells
Briefly: cAMP accumulation (SPA) in CHO cells transfected with human β1 adrenergic receptor. As to conditions: for EC50: CHO cells transfected with human β1-AR, cAMP, 15 min incubation, 10^−8 to 10^−4 M, read-out: beta-1 EC50; for beta-1 (IA) maximal response relative to isoproterenol: IA = % activity compound / % activity isoproterenol at 10^−5 M, CHO human β1 cells. Here is the method: as §1, §2, §3, §4, §5

T3 sequence (P08588 whole entry): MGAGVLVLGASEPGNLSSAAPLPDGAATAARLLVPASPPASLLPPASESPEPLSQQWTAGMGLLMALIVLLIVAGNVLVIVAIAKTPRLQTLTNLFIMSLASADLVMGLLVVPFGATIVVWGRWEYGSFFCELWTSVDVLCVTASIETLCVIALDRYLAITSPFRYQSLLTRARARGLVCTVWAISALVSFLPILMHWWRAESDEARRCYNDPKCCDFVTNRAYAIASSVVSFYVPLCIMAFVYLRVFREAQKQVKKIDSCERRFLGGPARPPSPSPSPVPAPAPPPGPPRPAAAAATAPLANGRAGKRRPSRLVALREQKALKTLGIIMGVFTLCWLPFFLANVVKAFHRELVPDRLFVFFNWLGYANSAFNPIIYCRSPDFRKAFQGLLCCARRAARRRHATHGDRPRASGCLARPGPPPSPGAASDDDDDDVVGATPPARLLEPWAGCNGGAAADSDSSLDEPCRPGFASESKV
T2 sequence (P13945 whole entry): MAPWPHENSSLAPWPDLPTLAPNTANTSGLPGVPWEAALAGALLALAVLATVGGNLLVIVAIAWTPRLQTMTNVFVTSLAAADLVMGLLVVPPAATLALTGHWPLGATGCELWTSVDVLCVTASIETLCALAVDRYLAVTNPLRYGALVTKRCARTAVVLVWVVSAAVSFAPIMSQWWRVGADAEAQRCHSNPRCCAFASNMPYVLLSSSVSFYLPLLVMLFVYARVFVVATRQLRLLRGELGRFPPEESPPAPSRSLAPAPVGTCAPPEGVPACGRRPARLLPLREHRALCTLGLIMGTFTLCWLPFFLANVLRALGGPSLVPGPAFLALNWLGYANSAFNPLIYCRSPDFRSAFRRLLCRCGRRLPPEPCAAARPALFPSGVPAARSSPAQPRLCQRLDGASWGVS

Consider `CC(C)CN(CC(=O)O)S(=O)(=O)c1ccc(N2CCC(NC[C@H](O)c3ccc(O)c(NS(C)(=O)=O)c3)CC2)cc1` [Example 34, [(4-{4-[(2R)-2-Hydroxy-2-(4-hydroxy-3-methanesulfonylamino-phenyl)-ethylamino]-piperidin-1-yl}-benzenesulfonyl)-isobutyl-amino]-acetic Acid], for which the “beta-2 (IA) maximal response relative to isoproterenol” value in test [1] is listed as “(0.14)”. In test [2], the concentration for a half-maximal effect (EC50) came out at 0.006 µM and the “beta-3 (IA) maximal response relative to isoproterenol” value is “(1.1)”. In addition, in test [3], the EC50 worked out at 10 µM and the “beta-1 (IA) maximal response relative to isoproterenol” value is listed as “(0.49)”.
Consider `CS(=O)(=O)Nc1cc([C@@H](O)CNC2CCN(c3ccc(S(=O)(=O)N4CCCC4)cc3)CC2)ccc1O` [Example 41, N-{2-Hydroxy-5-[(1R)-1-hydroxy-2-({1-[4-(1-pyrrolidinylsulfonyl)phenyl]-piperidinyl}-4-amino)ethyl]phenyl}methanesulfonamide], for which, in test [1], the EC50 amounted to 2 µM and the “beta-2 (IA) maximal response relative to isoproterenol” value is listed as “(0.24)”. In test [2], the EC50 worked out at 0.002 µM and the “beta-3 (IA) maximal response relative to isoproterenol” value is reported as “(1)”. For the same compound, in test [3], the EC50 came to 0.8 µM and the “beta-1 (IA) maximal response relative to isoproterenol” value was “(0.58)”.
`CS(=O)(=O)Nc1cc([C@@H](O)CNC2CCN(c3ccc(S(=O)(=O)N(CC(=O)O)Cc4cc(F)ccc4F)cc3)CC2)ccc1O` [Example 63, 2-{(2,5-Difluorobenzyl)[(4-{4-[((2R)-2-hydroxy-2-{4-hydroxy-3-[(methylsulfonyl)-amino]phenyl}ethyl)amino]-1-piperidinyl}phenyl)sulfonyl]amino}acetic acid]: the “beta-2 (IA) maximal response relative to isoproterenol” value in test [1] is on record as “(0.15)”. In addition, in test [2], the EC50 came to 0.005 µM and the “beta-3 (IA) maximal response relative to isoproterenol” value is “(0.91)”. In test [3], the EC50 amounted to 10 µM and the “beta-1 (IA) maximal response relative to isoproterenol” value is “(0.88)”.
As to `CCOC(=O)CN(CC1CC1)S(=O)(=O)c1ccc(N2CCC(NC[C@H](O)c3ccc(O)c(NS(C)(=O)=O)c3)CC2)cc1` [Example 28, [Cyclopropylmethyl-(4-{4-[(2R)-2-hydroxy-2-(4-hydroxy-3-methanesulfonylamino-phenyl)-ethylamino]-piperidin-1-yl}-benzenesulfonyl)-amino]-acetic Acid Ethyl Ester], in test [1], the EC50 turned out to be 6.6 µM and the “beta-2 (IA) maximal response relative to isoproterenol” value is “(0.85)”. In addition, in test [2], the EC50 turned out to be 0.002 µM and the “beta-3 (IA) maximal response relative to isoproterenol” value is listed as “(0.94)”. In addition, the “beta-1 (IA) maximal response relative to isoproterenol” value in test [3] is “(0.24)”.
In the case of `COC(=O)N(CC(=O)O)S(=O)(=O)c1ccc(N2CCC(NC[C@H](O)c3ccc(O)c(NS(C)(=O)=O)c3)CC2)cc1` [Example 60, [[(4-{4-[((2R)-2-Hydroxy-2-{4-hydroxy-3-[(methylsulfonyl)amino]phenyl}-ethyl)amino]piperidin-1-yl}phenyl)sulfonyl](methoxycarbonyl)amino]acetic Acid], in test [1], the EC50 is 10 µM and the “beta-2 (IA) maximal response relative to isoproterenol” value was “(0.21)”. Besides, in test [2], the EC50 amounted to 0.021 µM and the “beta-3 (IA) maximal response relative to isoproterenol” value was “(1.1)”. Besides, in test [3], the EC50 turned out to be 10 µM and the “beta-1 (IA) maximal response relative to isoproterenol” value is “(0.18)”.
In the case of `CS(=O)(=O)Nc1cc([C@@H](O)CNC2CCN(c3ccc(S(=O)(=O)N4CCC[C@@H]4C(=O)O)cc3)CC2)ccc1O` [Example 35, 1-(4-{4-[(2R)-2-Hydroxy-2-(4-hydroxy-3-methanesulfonylamino-phenyl)-ethylamino]-piperidin-1-yl}-benzenesulfonyl)-pyrrolidine-(2R)-2-carboxylic Acid], in test [1], the “beta-2 (IA) maximal response relative to isoproterenol” value is reported as “(0.04)”. Further, in test [2], the EC50 was determined as 0.011 µM and the “beta-3 (IA) maximal response relative to isoproterenol” value is reported as “(1.1)”. Further, in test [3], the half-maximal effective concentration (EC50) was 49 µM and the “beta-1 (IA) maximal response relative to isoproterenol” value is “(0.66)”.
As to `CS(=O)(=O)Nc1cc([C@@H](O)CNC2CCN(c3ccc(S(=O)(=O)N(CC(=O)O)CC4CC4)cc3)CC2)ccc1O` [Example 31, [Cyclopropylmethyl-(4-{4-[(2R)-2-hydroxy-2-(4-hydroxy-3-methanesulfonylamino-phenyl)-ethylamino]-piperidin-1-yl}-benzenesulfonyl)-amino]-acetic Acid], in test [1], the EC50 was found to be 12 µM and the “beta-2 (IA) maximal response relative to isoproterenol” value is “(0.33)”. Further, in test [2], the EC50 turned out to be 0.007 µM and the “beta-3 (IA) maximal response relative to isoproterenol” value was “(1.2)”. Also, in test [3], the EC50 was found to be 20 µM and the “beta-1 (IA) maximal response relative to isoproterenol” value is on record as “(0.96)”.
Regarding `CCOC(=O)[C@@H]1CCCN1S(=O)(=O)c1ccc(N2CCC(NC[C@H](O)c3ccc(O)c(NS(C)(=O)=O)c3)CC2)cc1` [Example 36, Ethyl (2S)-1-[(4-{4-[((2R)-2-Hydroxy-2-{4-hydroxy-3-[(methylsulfonyl)amino]phenyl}ethyl)amino]-1-piperidinyl}phenyl)sulfonyl]-2-pyrrolidinecarboxylate], in test [1], the EC50 was found to be 0.72 µM and the “beta-2 (IA) maximal response relative to isoproterenol” value is on record as “(0.19)”. In test [2], the EC50 is 0.009 µM and the “beta-3 (IA) maximal response relative to isoproterenol” value was “(1)”. In test [3], the EC50 stood at 4.8 µM and the “beta-1 (IA) maximal response relative to isoproterenol” value is “(0.85)”.
For the compound “1-(4-{4-[2-Hydroxy-2-(4-hydroxy-3-methanesulfonylmethyl-phenyl)-ethylamino]-piperidin-1-yl}-benzenesulfonylamino)-cyclopentane Carboxylic Acid Ethyl Ester [Example 40]”, in test [1], the EC50 was 0.04 µM and the “beta-2 (IA) maximal response relative to isoproterenol” value was “(0.31)”. For the same compound, in test [2], the EC50 was determined as 0.004 µM and the “beta-3 (IA) maximal response relative to isoproterenol” value is given as “(1.2)”. Also, in test [3], the EC50 amounted to 1.9 µM and the “beta-1 (IA) maximal response relative to isoproterenol” value is given as “(0.45)”.
`CCCCN(CC(=O)O)S(=O)(=O)c1ccc(N2CCC(NC[C@H](O)c3ccc(O)c(NS(C)(=O)=O)c3)CC2)cc1` [Example 20, [Butyl-(4-{4-[(2R)-2-hydroxy-2-(4-hydroxy-3-methanesulfonylamino-phenyl)-ethylamino]-piperidin-1-yl}-benzenesulfonyl)-amino]-acetic Acid]: in test [1], the EC50 was 10 µM and the “beta-2 (IA) maximal response relative to isoproterenol” value is recorded as “(0.3)”. Besides, in test [2], the EC50 worked out at 0.01 µM and the “beta-3 (IA) maximal response relative to isoproterenol” value is reported as “(1)”. Also, in test [3], the EC50 turned out to be 10 µM and the “beta-1 (IA) maximal response relative to isoproterenol” value is given as “(0.4)”.
With `CS(=O)(=O)Nc1cc([C@@H](O)CNC2CCN(c3ccc(S(=O)(=O)NCC4CC4)cc3)CC2)ccc1O` [Example 26, N-Cyclopropylmethyl-4-{4-[(2R)-2-hydroxy-2-(4-hydroxy-3-methanesulfonylamino-phenyl)-ethylamino]-piperidin-1-yl}-benzenesulfonamide], in test [1], the concentration giving a half-maximal response (EC50) is 0.27 µM and the “beta-2 (IA) maximal response relative to isoproterenol” value is given as “(0.29)”. In test [2], the EC50 is 0.023 µM and the “beta-3 (IA) maximal response relative to isoproterenol” value is given as “(0.98)”. Further, in test [3], the EC50 stood at 0.24 µM and the “beta-1 (IA) maximal response relative to isoproterenol” value was “(0.41)”.

Source of the values: patent publication US6444685B1, “N-(4-sulfonylaryl)Cyclylamine 2-hydroxyethylamines as beta-3 adrenergic receptor agonists” (Wyeth, priority 2000, dated 2002).
